Measured values as given in patent US9593140B2, “Antibacterial tylosin derivatives and methods for their preparation” (Bayer Intellectual Property GmbH, priority 2011, dated 2017).

Test system: Mannhemia hemolytica KB345
Experiment: Paper disc assay, M. hemolytica KB345 (Tilmicosin-sensitivity strain)
Type: cell-based
Details: for zone of inhibition at 3 mg/disc / zone of inhibition at 10 mg/disc / zone of inhibition at 30 mg/disc / zone of inhibition at 100 mg/disc / zone of inhibition at 1 mg/disc: 24 h, Table 2; for zone of inhibition at 1 mg/disc: 1 mg/6 mm disk; for Inhibition zone (mm): Table 4
Method: (1) Antibacterial Activities Against Mannheimia and Pasteurella were Determined by the Following Steps:
1) M. hemolytica KB345 (Tilmicosin-sensitivity strain) and M. hemolytica KB346 (Tilmicosin-low sensitivity strain) were provided. KB 345 strain stored at −80° C. was seeded to BHIB agar medium (10 mL) by using Microbank beads (Pro-Lab) and platinum nail. After statically incubating the KB 345 strain for 24 hours at 37° C., it was seeded to maintaining slant BHIB agar medium (7 mL) by using platinum loop, further statically incubated for 24 hours at 37° C. to obtain slant. One platinum loop of KB 345 strain stored at the slant was inoculated into a large test tube charged with BHIB liquid medium (10 mL) and then incubated for 24 hours at 37° C. with shaking.
2) A paper disc (ADVANTEC, Φ:6 mm) was impregnated with a solution of test compound and dried under reduced pressure.
3) To a melted BHIB agar medium was inoculated 1% of the broth obtained from step 1) above to prepare a test plate. After the medium set, the paper disc prepared in step 2) above was put on the plate and it was incubated at 37° C.
4) After one day, the inhibition zone diameter and clarity (A to E) were determined.

Row | SMILES | zone of inhibition at 3 mg/disc (3 mg/6 mm disk) | zone of inhibition at 10 mg/disc (10 mg/6 mm disk) | zone of inhibition at 30 mg/disc (30 mg/6 mm disk) | zone of inhibition at 100 mg/disc (100 mg/6 mm disk) | zone of inhibition at 1 mg/disc | Inhibition zone (mm) (3 mg/6 mm disk) | Inhibition zone (mm) (10 mg/6 mm disk) | Inhibition zone (mm) (30 mg/6 mm disk) | Inhibition zone (mm) (100 mg/6 mm disk)
1 | CC[C@H]1OC(=O)C[C@@H](O)[C@H](C)[C@@H](O[C@@H]2OC(C)[C@@H](O)C(N(C)C)C2O)[C@@H](CCn2cc(-c3cccnc3)nn2)C[C@@H](C)C(=O)/C=C/C(C)=C/[C@@H]1CO[C@@H]1OC(C)[C@@H](O)C(OC)C1OC (some centres unmarked) [YT16, 20-(4-(pyridine-3-yl)-1H-1,2,3-triazol-1-yl)-20-deoxodesmycosin] | 11.5 mm | 14.5 mm | 16.5 mm | 19 mm | – | – | – | – | –
2 | CCCNC[C@]1(O)[C@H](C)O[C@@H](O[C@H]2[C@H](C)[C@@H](O[C@@H]3O[C@H](C)C[C@H](N(C)C)[C@H]3O)[C@](C)(O)C[C@@H](C)CN[C@H](C)[C@@H](O)[C@](C)(O)[C@@H](CC)OC(=O)[C@@H]2C)C[C@@]1(C)OC [Tulathromycin, reference compound] | 16 mm | 18 mm | – | – | 12.5 mm | – | – | – | –
3 | CC[C@H]1OC(=O)C[C@@H](O)[C@H](C)[C@@H](O[C@@H]2OC(C)[C@@H](O)C(N(C)C)C2O)[C@@H](CCn2cc(-c3cccc(N)c3)nn2)C[C@@H](C)C(=O)/C=C/C(C)=C/[C@@H]1CO[C@@H]1OC(C)[C@@H](O)C(OC)C1OC (some centres unmarked) [YT17] | 12 mm | 14 mm | 18 mm | 19.5 mm | – | – | – | – | –
4 | CC[C@H]1OC(=O)C[C@@H](O)[C@H](C)[C@@H](O[C@@H]2OC(C)[C@@H](O)C(N(C)C)C2O)[C@@H](CCn2cc(-c3cnc4ccccc4c3)nn2)C[C@@H](C)C(=O)/C=C/C(C)=C/[C@@H]1CO[C@@H]1OC(C)[C@@H](O)C(OC)C1OC (some centres unmarked) [YT35, 20-(4-(3-quinoline)-1H-1,2,3-triazol-1-yl)-20-deoxodesmycosin] | 14 mm | 17 mm | 19 mm | 21 mm | – | – | – | – | –
5 | CC[C@H]1OC(=O)C[C@@H](O)[C@H](C)[C@@H](O[C@@H]2OC(C)[C@@H](O)C(N(C)C)C2O)[C@@H](CCn2cc(-c3ccc(-c4ccccc4)cc3)nn2)C[C@@H](C)C(=O)/C=C/C(C)=C/[C@@H]1CO[C@@H]1OC(C)[C@@H](O)C(OC)C1OC (some centres unmarked) [YT21] | 13.5 mm | 15.5 mm | 18 mm | 19 mm | 11.5 mm | – | – | – | –
6 | CCCCc1cn(CC[C@H]2C[C@@H](C)C(=O)/C=C/C(C)=C/[C@H](CO[C@@H]3OC(C)[C@@H](O)C(OC)C3OC)[C@@H](CC)OC(=O)C[C@@H](O)[C@H](C)[C@H]2O[C@@H]2OC(C)[C@@H](O)C(N(C)C)C2O)nn1 (some centres unmarked) [YT20, 20-(4-butyl-1H-1,2,3-triazol-1-yl)-20-deoxodesmycosin] | 11.5 mm | 16 mm | 17.5 mm | 20 mm | 9 mm | – | – | – | –
7 | CC[C@H]1OC(=O)C[C@@H](O)[C@H](C)[C@@H](O[C@@H]2OC(C)[C@@H](O)C(N(C)C)C2O)[C@@H](CCn2cc(C(C)(C)O)nn2)C[C@@H](C)C(=O)/C=C/C(C)=C/[C@@H]1CO[C@@H]1OC(C)[C@@H](O)C(OC)C1OC (some centres unmarked) [YT32, 20-(4-(1-methyl-1-hydroxylethyl)-1H-1,2,3-triazol-1-yl)-20-deoxodesmycosin] | – | 9 mm | 14 mm | 16 mm | – | – | – | – | –
8 | CC[C@H]1OC(=O)C[C@@H](O)[C@H](C)[C@@H](O[C@@H]2OC(C)[C@@H](O)C(N(C)C)C2O)[C@@H](CCn2cc(-c3ccc(N)cc3)nn2)C[C@@H](C)C(=O)/C=C/C(C)=C/[C@@H]1CO[C@@H]1OC(C)[C@@H](O)C(OC)C1OC (some centres unmarked) [YT18] | 11 mm | 14.5 mm | 17 mm | 19.5 mm | – | – | – | – | –
9 | CCOC(=O)c1cn(CC[C@H]2C[C@@H](C)C(=O)/C=C/C(C)=C/[C@H](CO[C@@H]3OC(C)[C@@H](O)C(OC)C3OC)[C@@H](CC)OC(=O)C[C@@H](O)[C@H](C)[C@H]2O[C@@H]2OC(C)[C@@H](O)C(N(C)C)C2O)nn1 (some centres unmarked) [YT22, 20-(4-ethoxycarbonyl-1H-1,2,3-triazol-1-yl)-20-deoxodesmycosin] | 11.5 mm | 14.5 mm | 18 mm | 21 mm | 7.5 mm | – | – | – | –
10 | CC[C@H]1OC(=O)C[C@@H](O)[C@H](C)[C@@H](O[C@@H]2O[C@H](C)[C@@H](O[C@H]3C[C@@](C)(O)[C@@H](O)[C@H](C)O3)[C@H](N(C)C)[C@H]2O)[C@@H](CC=O)C[C@@H](C)C(=O)/C=C/C(C)=C/[C@@H]1CO[C@@H]1O[C@H](C)[C@@H](O)[C@@H](OC)[C@H]1OC [Tylosin] | – | – | 10.5 mm | 11 mm | – | – | – | – | –
11 | CCCCCOc1ccc(-c2cn(CC[C@H]3C[C@@H](C)C(=O)/C=C/C(C)=C/[C@H](CO[C@@H]4OC(C)[C@@H](O)C(OC)C4OC)[C@@H](CC)OC(=O)C[C@@H](O)[C@H](C)[C@H]3O[C@@H]3OC(C)[C@@H](O)C(N(C)C)C3O)nn2)cc1 (some centres unmarked) [YT27, 20-(4-(4-pentyloxyphenyl)-1H-1,2,3-triazol-1-yl)-20-deoxodesmycosin] | 9 mm | 11 mm | 13 mm | 16 mm | – | – | – | – | –
12 | CC[C@H]1OC(=O)C[C@@H](O)[C@H](C)[C@@H](O[C@@H]2OC(C)[C@@H](O)C(N(C)C)C2O)[C@@H](CCn2cc(Cn3nnc4ccccc43)nn2)C[C@@H](C)C(=O)/C=C/C(C)=C/[C@@H]1CO[C@@H]1OC(C)[C@@H](O)C(OC)C1OC (some centres unmarked) [YT28, 20-(4-(1-methyl-1H-benzotriazole)-1H-1,2,3-triazol-1-yl)-20-deoxodesmycosin] | 11 mm | 13 mm | 16 mm | 19 mm | – | – | – | – | –
13 | CC[C@H]1OC(=O)C[C@@H](O)[C@H](C)[C@@H](O[C@@H]2OC(C)[C@@H](O)C(N(C)C)C2O)[C@@H](CCn2cc(-c3ccc(C(C)(C)C)cc3)nn2)C[C@@H](C)C(=O)/C=C/C(C)=C/[C@@H]1CO[C@@H]1OC(C)[C@@H](O)C(OC)C1OC (some centres unmarked) [YT26, 20-(4-(4-t-butylphenyl)-1H-1,2,3-triazol-1-yl)-20-deoxodesmycosin] | 9 mm | 11.5 mm | 14 mm | 16 mm | – | – | – | – | –
14 | CC[C@H]1OC(=O)C[C@@H](O)[C@H](C)[C@@H](O[C@@H]2OC(C)[C@@H](O)C(N(C)C)C2O)[C@@H](CCn2cc(-c3cc(C)c(C)cc3C)nn2)C[C@@H](C)C(=O)/C=C/C(C)=C/[C@@H]1CO[C@@H]1OC(C)[C@@H](O)C(OC)C1OC (some centres unmarked) [YT25, 20-(4-(2,4,5-trimethylphenyl)-1H-1,2,3-triazol-1-yl)-20-deoxodesmycosin] | 12 mm | 14 mm | 17 mm | 18.5 mm | 8 mm | – | – | – | –
15 | CC[C@H]1OC(=O)C[C@@H](O)[C@H](C)[C@@H](O[C@@H]2O[C@H](C)[C@@H](O)[C@H](N(C)C)[C@H]2O)[C@@H](CCn2cc(-c3ccccc3)nn2)C[C@@H](C)C(=O)/C=C/C(C)=C/[C@@H]1CN=[N+]=[N-] [YT114, 20-(4-phenyl-1H-1,2,3-triazol-1-yl)-20-deoxo-23-azido-23-deoxy-5-O-mycaminosyltylonolide] | – | – | – | – | – | 11.5 mm | 17.5 mm | 21.0 mm | 21.0 mm
16 | CCCCCCCCCc1cn(CC[C@H]2C[C@@H](C)C(=O)/C=C/C(C)=C/[C@H](CO[C@@H]3OC(C)[C@@H](O)C(OC)C3OC)[C@@H](CC)OC(=O)C[C@@H](O)[C@H](C)[C@H]2O[C@@H]2OC(C)[C@@H](O)C(N(C)C)C2O)nn1 (some centres unmarked) [YT34, 20-(4-nonyl-1H-1,2,3-triazol-1-yl)-20-deoxodesmycosin] | 11 mm | 13 mm | 14 mm | 15 mm | – | – | – | – | –
17 | CC[C@H]1OC(=O)C[C@@H](O)[C@H](C)[C@@H](O[C@@H]2OC(C)[C@@H](O)C(N(C)C)C2O)[C@@H](CCn2cc(CCCCO)nn2)C[C@@H](C)C(=O)/C=C/C(C)=C/[C@@H]1CO[C@@H]1OC(C)[C@@H](O)C(OC)C1OC (some centres unmarked) [YT36, 20-(4-(4-butanol)-1H-1,2,3-triazol-1-yl)-20-deoxodesmycosin] | – | – | – | 9 mm | – | – | – | – | –
18 | CC[C@H]1OC(=O)C[C@@H](O)[C@H](C)[C@@H](O[C@@H]2OC(C)[C@@H](O)C(N(C)C)C2O)[C@@H](CCn2cc(-c3ccc(Oc4ccccc4)cc3)nn2)C[C@@H](C)C(=O)/C=C/C(C)=C/[C@@H]1CO[C@@H]1OC(C)[C@@H](O)C(OC)C1OC (some centres unmarked) [YT24, 20-(4-(4-phenoxyphenyl)-1H-1,2,3-triazol-1-yl)-20-deoxodesmycosin] | 12 mm | 14.5 mm | 17 mm | 18 mm | 8.5 mm | – | – | – | –
19 | CC[C@H]1OC(=O)C[C@@H](O)[C@H](C)[C@@H](O[C@@H]2OC(C)[C@@H](O)C(N(C)C)C2O)[C@@H](CCn2cc(CNC)nn2)C[C@@H](C)C(=O)/C=C/C(C)=C/[C@@H]1CO[C@@H]1OC(C)[C@@H](O)C(OC)C1OC (some centres unmarked) [YT30, 20-(4-(N-methyl-methylamine)-1H-1,2,3-triazol-1-yl)-20-deoxodesmycosin] | – | – | – | 10 mm | – | – | – | – | –
